# Reference: paper PMC9658513, “Discovery of Compounds That Selectively Repress the Amyloidogenic Processing of the Amyloid Precursor Protein: Design, Synthesis and Pharmacological Evaluation of Diphenylpyrazoles” (International Journal of Molecular Sciences, 2022)
# Where two headings read alike, the source gives them in different places.
# What was measured:
# Type in all cases: cell-based, human
# Aβ1–40 peptide secretion = assay: Aβ1–40 secretion in cell medium by ELISA
# Summary of the method: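 SY5Y-APP^WT cells (SH-SY5Y human neuroblastoma stably expressing human wild-type APP695) were treated with compounds for 24 h in supplemented DMEM at 37 °C. Secreted Aβ1–40 and Aβ1–42 were quantified in the collected, centrifuged conditioned medium by ELISA, in pg/mL.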
# [1] = test system: AICD (APP intracellular domain); assay: AICD level by Western blotting in SY5Y-APP^WT cells; details: concentration increasing AICD 20-fold vs untreated control, read-out: AICD (C20)
# Summary of the method: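 SH-SY5Y cells stably expressing human wild-type APP695 treated with compounds for 24 h at 37 °C. αCTF and AICD measured by Western blot of lysates (10 µg protein, 12% Bis-Tris gels) as band intensity; C20 is concentration raising these fragments 20-fold over control.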
# in vitro = details: human
# Summary of the method: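 Cells seeded at 3 × 10^4 per well, attached 24 h, then exposed to drug for 72 h in DMEM with 10% SVF. Viability by MTS colorimetric assay, absorbance at 490 nm.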
# [2] = Homo sapiens, SY5Y-APP^WT cells, 24 h treatment, mean ± SD of at least three experiments in triplicate, read-out: Aβ1–40 IC50
# [3] = Homo sapiens, Aβ1–40 and Aβ1–42 not distinguished, read-out: IC50 for Aβ secretion (Aβ1–x production)
Molecule,IC50 (Aβ1–40 peptide secretion; [2]),EC (20-fold increase) ([1]; Homo sapiens),CC50 at 72 h (in vitro),IC50 (Aβ1–40 peptide secretion; [3]),"IC50 (Aβ1–40 peptide secretion; SY5Y-APP^WT cells, 24 h treatment, mean ± SD of at least three experiments in triplicate, read-out: Aβ1–40 IC50)",EC (20-fold increase) [1]
"CN(C)CCCc1ccc(-c2nn(-c3ccc(CN(C)C)cc3)cc2CN(C)C)cc1 [Compound 24, 3-[4-[4-(Dimethylaminomethyl)-1-[4-(dimethylaminomethyl)phenyl] Pyrazol-3-yl]phenyl]-N,N-dimethyl-propan-1-amine]",1500 ± 100 nM,2.2 µM,> 100 µM,,,
"Cc1cn(-c2cccc(CO)c2)nc1-c1ccc(CN(C)CCCN(C)C)cc1 [Compound 57, (3-{3-[4-({[3-(Dimethylamino)propyl](methyl)amino}methyl)phenyl]-4-methyl-1H-pyrazol-1-yl}phenyl)methanol]",2900 ± 1000 nM,8.5 µM,> 100 µM,,,
"Cc1cn(-c2cccc(CN3CCN(C)CC3)c2)nc1-c1cccc(CN(C)C)c1 [Compound 65, N,N-dimethyl-1-[3-[4-methyl-1-[3-[(4-methylpiperazin-1-yl)methyl]phenyl]pyrazol-3-yl]phenyl]methanamine]",2000 ± 700 nM,2.8 µM,> 100 µM,,,
"Cc1cn(-c2cccc(CN(C)C)c2)nc1-c1ccc(CN(C)CCCN(C)C)cc1 [Compound 67, {[4-(1-{3-[(Dimethylamino)methyl]phenyl}-4-methyl-1H-pyrazol-3-yl)phenyl]methyl} [3-(Dimethylamino)propyl]methylamine]",1300 ± 100 nM,1.2 µM,12 µM,~1000 nM,,
"Cc1cn(-c2cccc(CN(C)C)c2)nc1-c1cccc(CN(C)CCCN(C)C)c1 [Compound 70, N′-[[3-[1-[3-(Dimethylaminomethyl)phenyl]-4-methyl-pyrazol-3-yl]phenyl] Methyl]-N,N,N′-trimethyl-propane-1,3-diamine]",1500 ± 100 nM,1.7 µM,51 µM,,,
"Cc1cn(-c2cccc(CN3CCN(C)CC3)c2)nc1-c1cccc(CN(C)CCCN(C)C)c1 [Compound 71, N,N,N′-Trimethyl-N′-[[3-[4-methyl-1-[3-[(4-methylpiperazin-1-yl)methyl]phenyl]pyrazol-3-yl]phenyl]methyl]propane-1,3-diamine]",1200 ± 100 nM,1 µM,25 µM,~1000 nM,,
"N′-[[4-[4-[3-(Dimethylamino)propyl]-3-[4-[3-(dimethylamino)propyl]phenyl] Pyrazol-1-yl]phenyl]methyl]-N,N,N′-trimethyl-propane-1,3-diamine [Compound 33]",,,,,9200 ± 400 nM,8.9 µM
